Experimental data published in patent publication US11981661B2, “Heterocyclic compounds” (Hoffmann-La Roche Inc., priority 2020, dated 2024).

What follows are compounds tested against T1, MAGL (Homo sapiens, UniProt Q99685) (assay: 2-AG assay (MAGL inhibitory activity, hydrolysis of 2-arachidonoylglycerol followed by mass spectrometry)). Details: 50 pM MAGL, 8 μM 2-arachidonoylglycerol, 15 min preincubation, 30 min incubation at RT, concentration range 12.5 μM to 0.8 pM.
T1 sequence (Q99685 1-303): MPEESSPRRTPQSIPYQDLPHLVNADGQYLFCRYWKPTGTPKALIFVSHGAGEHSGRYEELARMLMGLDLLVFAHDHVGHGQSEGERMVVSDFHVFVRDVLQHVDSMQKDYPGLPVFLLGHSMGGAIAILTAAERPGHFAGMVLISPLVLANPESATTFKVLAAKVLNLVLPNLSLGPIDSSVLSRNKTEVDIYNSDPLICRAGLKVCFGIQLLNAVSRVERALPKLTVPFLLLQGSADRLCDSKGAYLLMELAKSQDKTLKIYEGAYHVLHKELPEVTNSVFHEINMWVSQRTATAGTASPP
Type: biochemical
Experimental: Compounds were profiled for MAGL inhibitory activity by determining the enzymatic activity by following the hydrolysis of the natural substrate 2-arachidonoylglycerol resulting in arachidonic acid, which can be followed by mass spectrometry. This assay is hereinafter abbreviated “2-AG assay”.
The 2-AG assay was carried out in 384 well assay plates (PP, Greiner Cat #784201) in a total volume of 20 μL. Compound dilutions were made in 100% DMSO (VWR Chemicals 23500.297) in a polypropylene plate in 3-fold dilution steps to give a final concentration range in the assay from 12.5 μM to 0.8 pM. 0.25 μL compound dilutions (100% DMSO) were added to 9 μL MAGL in assay buffer (50 mM TRIS (GIBCO, 15567-027), 1 mM EDTA (Fluka, 03690-100 mL), 0.01% (v/v) Tween. After shaking, the plate was incubated for 15 min at RT. To start the reaction, 10 μL 2-arachidonoylglycerol in assay buffer was added. The final concentrations in the assay was 50 pM MAGL and 8 μM 2-arachidonoylglyerol. After shaking and 30 min incubation at RT, the reaction was quenched by the addition of 40 μL of ACN containing 4 μM of d8-arachidonic acid. The amount of arachidonic acid was traced by an online SPE system (Agilent Rapidfire) coupled to a triple quadrupole mass spectrometer (Agilent 6460). A C18 SPE cartridge (G9205A) was used in an ACN/water liquid setup. The mass spectrometer was operated in negative electrospray mode following the mass transitions 303.1→259.1 for arachidonic acid and 311.1→267.0 for d8-arachidonic acid. The activity of the compounds was calculated based on the ratio of intensities [arachidonic acid/d8-arachidonic acid].
For `CC(C)(C)c1ccc(C2CN(C(=O)CCC3CCC(=O)N3)C2)cc1` (single isomer, unassigned; (+)) [Example 4, (+)-5-[3-[3-(4-tert-Butylphenyl)azetidin-1-yl]-3-oxo-propyl]pyrrolidin-2-one], the IC50 was 5 nM.
`O=C1CCC(CCC(=O)N2CC(c3ccc(C4(C(F)(F)F)CC4)cc3)C2)N1` (single isomer, unassigned; (+)) [Example 6, (+)-5-[3-Oxo-3-[3-[4-[1-(trifluoromethyl)cyclopropyl]phenyl]azetidin-1-yl]propyl]pyrrolidin-2-one] showed an IC50 of 3 nM.
`O=C1CCC(CCC(=O)N2CC(c3ccc(-c4ccc(F)cc4F)cc3)C2)N1` (single isomer, unassigned; (+)) [Example 10, (+)-5-[3-[3-[4-(2,4-Difluorophenyl)phenyl]azetidin-1-yl]-3-oxo-propyl]pyrrolidin-2-one] was tested, and the IC50 was 5 nM.
`O=C1CCC(CCC(=O)N2C[C@@H]3CN(Cc4ccc(C(F)(F)F)cc4F)C[C@H]3C2)N1` (single isomer, unassigned; (+)) [Example 12] showed an IC50 of 2310 nM.
`O=C1COCC(CCC(=O)N2CC(OCc3ccc(C(F)(F)F)cc3F)C2)N1` (single isomer, unassigned; (+)) [Example 51, (+)-5-[3-[3-[[2-Fluoro-4-(trifluoromethyl)phenyl]methoxy]azetidin-1-yl]-3-oxo-propyl]morpholin-3-one] showed an IC50 of 287 nM.
For `O=C1CCC(CCC(=O)N2CC(OCc3ccc(C(F)(F)F)cc3F)C2)N1` (single isomer, unassigned; (-)) [Example 1, (−)-5-[3-[3-[[2-Fluoro-4-(trifluoromethyl)phenyl]methoxy]azetidin-1-yl]-3-oxo-propyl]pyrrolidin-2-one], the IC50 was 3960 nM.
With `CC(C)(C)c1ccc(C2CN(C(=O)CCC3CCC(=O)N3)C2)cc1` (single isomer, unassigned; (-)) [Example 3, (−)-5-[3-[3-(4-tert-Butylphenyl)azetidin-1-yl]-3-oxo-propyl]pyrrolidin-2-one] the IC50 was 273 nM.
`O=C1CCC(CCC(=O)N2CC(c3ccc(C4(C(F)(F)F)CC4)cc3)C2)N1` (single isomer, unassigned; (-)) [Example 5, (−)-5-[3-Oxo-3-[3-[4-[1-(trifluoromethyl)cyclopropyl]phenyl]azetidin-1-yl]propyl]pyrrolidin-2-one] gave an IC50 of 627 nM.
With `O=C1CCC(CCC(=O)N2CC(c3ccc(-c4ccc(F)cc4F)cc3)C2)N1` (single isomer, unassigned; (-)) [Example 9, (−)-5-[3-[3-[4-(2,4-Difluorophenyl)phenyl]azetidin-1-yl]-3-oxo-propyl]pyrrolidin-2-one] the IC50 was 550 nM.
`O=C1CCC(CCC(=O)N2C[C@@H]3CN(Cc4ccc(C(F)(F)F)cc4F)C[C@H]3C2)N1` (single isomer, unassigned; (-)) [Example 11] gave an IC50 of no less than 12500 nM.
In the case of `O=C1COCC(CCC(=O)N2CC(OCc3ccc(C(F)(F)F)cc3F)C2)N1` (single isomer, unassigned; (-)) [Example 50, (−)-5-[3-[3-[[2-Fluoro-4-(trifluoromethyl)phenyl]methoxy]azetidin-1-yl]-3-oxo-propyl]morpholin-3-one], the IC50 is reported as no less than 12500 nM.
For `CC1(CCC(=O)N2CC(OCc3ccc(C(F)(F)F)cc3F)C2)CCC(=O)N1` (stereo not drawn) [Example 14, (+)- or (−)-5-[3-[3-[[2-Fluoro-4-(trifluoromethyl)phenyl]methoxy]azetidin-1-yl]-3-oxo-propyl]-5-methyl-pyrrolidin-2-one], the IC50 was 2110 nM.
Compound `O=C1N[C@@H](CCC(=O)N2CC(OCc3ccc(C(F)(F)F)cc3F)C2)CO1` [Example 19, (4S)-4-[3-[3-[[2-Fluoro-4-(trifluoromethyl)phenyl]methoxy]azetidin-1-yl]-3-oxo-propyl]oxazolidin-2-one] has an IC50 of 1550 nM.
`O=C1N[C@H](CCC(=O)N2CC(OCc3ccc(C(F)(F)F)cc3F)C2)CO1` [Example 20, (4R)-4-[3-[3-[[2-Fluoro-4-(trifluoromethyl)phenyl]methoxy]azetidin-1-yl]-3-oxo-propyl]oxazolidin-2-one] was tested, and the IC50 was 7 nM.
`O=C1N[C@@H](CCC(=O)N2CC(c3ccc(C4(C(F)(F)F)CC4)cc3)C2)CO1` [Example 21, (4S)-4-[3-Oxo-3-[3-[4-[1-(trifluoromethyl)cyclo-propyl]phenyl]azetidin-1-yl]propyl]oxazolidin-2-one] was tested, and the IC50 was 254 nM.
In the case of `O=C1N[C@H](CCC(=O)N2CC(c3ccc(C4(C(F)(F)F)CC4)cc3)C2)CO1` [Example 22, (4R)-4-[3-Oxo-3-[3-[4-[1-(trifluoromethyl)cyclo-propyl]phenyl]azetidin-1-yl]propyl]oxazolidin-2-one], the IC50 is reported as 1 nM.
For `O=C1N[C@@H](CCC(=O)N2CC(c3ccc(-c4ccc(F)cc4F)cc3)C2)CO1` [Example 23, (4S)-4-[3-[3-[4-(2,4-Difluorophenyl)phenyl]azetidin-1-yl]-3-oxo-propyl]oxazolidin-2-one], the IC50 was 381 nM.
`O=C1N[C@H](CCC(=O)N2CC(c3ccc(-c4ccc(F)cc4F)cc3)C2)CO1` [Example 24, (4R)-4-[3-[3-[4-(2,4-Difluorophenyl)phenyl]azetidin-1-yl]-3-oxo-propyl]oxazolidin-2-one] gave an IC50 of 2 nM.
`CC(C)(Oc1ccc(C2CN(C(=O)CC[C@@H]3COC(=O)N3)C2)cc1)C(F)(F)F` [Example 25, (4R)-4-[3-Oxo-3-[3-[4-(2,2,2-trifluoro-1,1-dimethyl-ethoxy)phenyl]azetidin-1-yl]propyl]oxazolidin-2-one] was tested, and the IC50 was 1 nM.
Compound `O=C1N[C@H](CCC(=O)N2CC(OCc3ccc(S(F)(F)(F)(F)F)cc3F)C2)CO1` [Example 26, (4R)-4-[3-[3-[[2-Fluoro-4-(pentafluoro-λ^6-sulfanyl)phenyl]methoxy]azetidin-1-yl]-3-oxo-propyl]oxazolidin-2-one] has an IC50 of 4 nM.
`O=C1N[C@H](CCC(=O)N2CC3(CC(Cc4ccc(F)cc4F)C3)C2)CO1` [Example 27, (4R)-4-[3-[6-[(2,4-Difluorophenyl)methyl]-2-azaspiro[3.3]heptan-2-yl]-3-oxo-propyl]oxazolidin-2-one] showed an IC50 of 0.5 nM.
`O=C1N[C@H](CCC(=O)N2CC(c3ccc(Oc4ccccc4Cl)nc3)C2)CO1` [Example 28, (4R)-4-[3-[3-[6-(2-Chlorophenoxy)-3-pyridyl]azetidin-1-yl]-3-oxo-propyl]oxazolidin-2-one] showed an IC50 of 10 nM.
`O=C1N[C@H](CCC(=O)N2CC3(CC(Oc4ccc(F)cc4Cl)C3)C2)CO1` [Example 29, (4R)-4-[3-[6-(2-Chloro-4-fluoro-phenoxy)-2-azaspiro[3.3]heptan-2-yl]-3-oxo-propyl]oxazolidin-2-one] was tested, and the IC50 was 6 nM.
For `O=C1N[C@H](CCC(=O)N2CC(c3ccc(Oc4ccc(F)cc4)cc3)C2)CO1` [Example 30, (4R)-4-[3-[3-[4-(4-Fluorophenoxy)phenyl]azetidin-1-yl]-3-oxo-propyl]oxazolidin-2-one], the IC50 was 1 nM.
Compound `O=C1N[C@H](CCC(=O)N2CC(c3ccc(Oc4ccc(OC(F)(F)F)cc4)nc3)C2)CO1` [Example 31, (4R)-4-[3-Oxo-3-[3-[6-[4-(trifluoromethoxy)phenoxy]-3-pyridyl]azetidin-1-yl]propyl]oxaazolidin-2-one] has an IC50 of 83 nM.
`O=C1N[C@H](CCC(=O)N2CC3(CC(Oc4cncc(C(F)(F)F)n4)C3)C2)CO1` [Example 32, (4R)-4-[3-Oxo-3-[6-[6-(trifluoromethyl)pyrazin-2-yl]oxy-2-azaspiro[3.3]heptan-2-yl]propyl]oxazolidin-2-one] gave an IC50 of 17 nM.
Compound `O=C1N[C@H](CCC(=O)N2CC(C#Cc3cccc(Cl)c3)C2)CO1` [Example 33, (4R)-4-[3-[3-[2-(3-Chlorophenyl)ethynyl]azetidin-1-yl]-3-oxo-propyl]oxazolidin-2-one] has an IC50 of 12 nM.
For `O=C1N[C@H](CCC(=O)N2CC(c3ccc(N4CCC(C(F)(F)F)C4)nc3)C2)CO1` (stereo partly drawn) [Example 34, (4R)-4-[3-Oxo-3-[3-[6-[3-(trifluoromethyl)pyrrolidin-1-yl]-3-pyridyl]azetidin-1-yl]propyl]oxazolidin-2-one], the IC50 was 14 nM.
With `CC(C[C@@H]1COC(=O)N1)C(=O)N1CC(OCc2ccc(C(F)(F)F)cc2F)C1` (stereo partly drawn) [Example 35, (4R)-4-[3-[3-[[2-Fluoro-4-(trifluoromethyl)phenyl]methoxy]azetidin-1-yl]-2-methyl-3-oxo-propyl]oxazolidin-2-one] the IC50 was 13 nM.
`O=C(CCc1cnn[nH]1)N1CC(OCc2ccc(C(F)(F)F)cc2F)C1` [Example 36, 1-(3-((2-Fluoro-4-(trifluoromethyl)benzyl)oxy)azetidin-1-yl)-3-(1H-1,2,3-triazol-5-yl)propan-1-one] showed an IC50 of 4030 nM.
